10 molecules from PubChem BioAssay (NCI) can be followed below.

Some test systems named below: T-47D breast; DLD-1 colon; UACC-257 melanoma; MALME-3M melanoma; SK-OV-3 ovarian; SK-MEL-28 melanoma; OVCAR-4 ovarian; LXFL 529 NSCLC; OVCAR-8 ovarian; HL-60(TB) leukemia.
What all share (assay): growth of human tumour cells (NCI), 48 h

“And” between values parts separate entries of the source, which are not always exact repeats. Equal values may be shown once.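 How tested: cells in 96-well plates exposed to compound for 48 hours at five concentrations. GI50 = concentration required for 50% inhibition of growth. TGI marks complete inhibition of growth.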 Where only a bound is given, the exact number is not on record here.

In the case of `CCC/C(=N\NC(=S)N1CC2CCC(CC2)C1)c1ccccn1`, the TGI in the experiment with T-47D breast is 0.233 µM; in the experiment on DLD-1 colon, 3.33 µM; in the experiment on UACC-257 melanoma, 0.197 µM and 1.35 µM; in the experiment with MALME-3M melanoma, 2.76 µM and 1.99 µM; with SK-OV-3 ovarian, 2.13 µM and 2.31 µM; in the experiment with SK-MEL-28 melanoma, 5.16 µM and 1.29 µM. In addition, the TGI is 0.897 µM and 0.702 µM with OVCAR-4 ovarian; 0.143 µM and 0.129 µM with LXFL 529 NSCLC; 2.82 µM and 2.1 µM in the experiment on OVCAR-8 ovarian. In addition, the GI50 with SK-OV-3 ovarian is 1.1 µM; in the experiment on SK-MEL-28 melanoma, 0.0479 µM; with OVCAR-4 ovarian, 0.119 µM.

With `CCC[CH2][Sn]1([CH2]CCC)[O]CC(CN(C)Cc2ccccc2)[O]1` (stereo not drawn), the GI50 is 0.473 µM in the experiment on HL-60(TB) leukemia; 12.3 µM in the experiment on DLD-1 colon; 7.85 µM with UACC-257 melanoma; 2.72 µM in the experiment on MALME-3M melanoma; 15.6 µM in the experiment on SK-OV-3 ovarian; 13.3 µM with SK-MEL-28 melanoma. Also, the values for the GI50 in the experiment on OVCAR-4 ovarian, in the experiment on LXFL 529 NSCLC and in the experiment with OVCAR-8 ovarian were 10.7 µM, 1.6 µM and 11.9 µM, respectively. For the same molecule, the TGI was 2.08 µM with HL-60(TB) leukemia; 26.1 µM in the experiment with DLD-1 colon; 20.2 µM in the experiment with UACC-257 melanoma; 9.21 µM with MALME-3M melanoma; 33.2 µM in the experiment with SK-OV-3 ovarian; 26.5 µM in the experiment on SK-MEL-28 melanoma. Further, the TGI came out at 23 µM in the experiment on OVCAR-4 ovarian, 5 µM with LXFL 529 NSCLC and 24.6 µM in the experiment on OVCAR-8 ovarian.

As for `O=C(c1ccccc1)C1OC12C(=O)Nc1c(Cl)cc(Cl)cc12` (stereo not drawn), the TGI was 36 µM with HL-60(TB) leukemia; 45.7 µM with DLD-1 colon; > 100 µM in the experiment on UACC-257 melanoma; > 100 µM with MALME-3M melanoma; > 100 µM in the experiment on SK-OV-3 ovarian; > 100 µM in the experiment with SK-MEL-28 melanoma. Further, the TGI in the experiment with OVCAR-4 ovarian was > 39.9 µM; with LXFL 529 NSCLC, > 53.9 µM; with OVCAR-8 ovarian it was 51.1 µM.

With `O=C(O)C1(C(=O)O)CCC1.[NH2-].[NH2-].[Pt+2]`, the GI50 in the experiment on HL-60(TB) leukemia is 29.5 µM and 12.7 µM; with T-47D breast it was > 250 µM; in the experiment on DLD-1 colon it was 206 µM; in the experiment on UACC-257 melanoma, 129 µM and > 229 µM; in the experiment with MALME-3M melanoma, 72.2 µM and 107 µM; in the experiment on SK-OV-3 ovarian, 172 µM and > 240 µM. The GI50 with SK-MEL-28 melanoma was 174 µM; in the experiment on OVCAR-4 ovarian it was 84 µM and 120 µM; in the experiment on LXFL 529 NSCLC, 247 µM; in the experiment on OVCAR-8 ovarian, 181 µM and > 193 µM. Further, the TGI with HL-60(TB) leukemia was 201 µM and 191 µM; with T-47D breast it was > 250 µM; with DLD-1 colon, > 237 µM; in the experiment on UACC-257 melanoma, 250 µM and > 250 µM; in the experiment with MALME-3M melanoma it was 180 µM and 192 µM; in the experiment with SK-OV-3 ovarian, 243 µM and > 250 µM. For the same molecule, the TGI is > 246 µM in the experiment on SK-MEL-28 melanoma; 221 µM and > 250 µM in the experiment on OVCAR-4 ovarian; > 250 µM with LXFL 529 NSCLC; 232 µM and > 250 µM in the experiment with OVCAR-8 ovarian.

On to `Oc1ccc2ccccc2c1N=Nc1ccsc1`, for which the TGI with HL-60(TB) leukemia, in the experiment with DLD-1 colon, in the experiment on UACC-257 melanoma, with MALME-3M melanoma, in the experiment on SK-OV-3 ovarian and with SK-MEL-28 melanoma was > 100 µM each time. Moreover, the TGI with OVCAR-4 ovarian, in the experiment with LXFL 529 NSCLC and in the experiment with OVCAR-8 ovarian was > 100 µM in each case.

`Cc1ccc(S(=O)(=O)NC2(C=O)CCCC3CCCCC32)cc1` (stereo not drawn): the TGI in the experiment on HL-60(TB) leukemia, in the experiment on DLD-1 colon, in the experiment with UACC-257 melanoma, in the experiment with MALME-3M melanoma, in the experiment with SK-OV-3 ovarian and in the experiment with SK-MEL-28 melanoma was > 100 µM throughout. The TGI in the experiment with OVCAR-4 ovarian, with LXFL 529 NSCLC and with OVCAR-8 ovarian was > 100 µM in each case.

Turning to `Cc1ccc(NC(=O)CC2Sc3ccccc3NC2=O)c(C)c1` (stereo not drawn), the TGI with HL-60(TB) leukemia worked out at 8.35 µM; with DLD-1 colon, 31 µM; with UACC-257 melanoma it was 39.7 µM; in the experiment on MALME-3M melanoma, 47.7 µM; in the experiment on SK-OV-3 ovarian, 33 µM; in the experiment with SK-MEL-28 melanoma it was 75.9 µM. Moreover, the TGI was 48.1 µM with OVCAR-4 ovarian, 71.1 µM in the experiment with LXFL 529 NSCLC and 37.4 µM with OVCAR-8 ovarian.

As to `O=C(CCN1CCN(c2ccccc2)CC1)N1CCc2c([nH]c3ccccc23)C1c1cccnc1` (stereo not drawn), the TGI with HL-60(TB) leukemia was 33.6 µM; in the experiment with DLD-1 colon, 36.2 µM; in the experiment with UACC-257 melanoma, 31.5 µM; in the experiment on MALME-3M melanoma, 39.2 µM; with SK-OV-3 ovarian, 33.7 µM; with SK-MEL-28 melanoma it was 29.1 µM. Moreover, the results for the TGI in the experiment on OVCAR-4 ovarian, in the experiment with LXFL 529 NSCLC and with OVCAR-8 ovarian were 33 µM, 31.6 µM and 30.4 µM, respectively.

As for `COC(=O)c1cccn1C(=O)n1cccc1`, the TGI in the experiment with HL-60(TB) leukemia, in the experiment with DLD-1 colon, in the experiment on UACC-257 melanoma, with MALME-3M melanoma, in the experiment with SK-OV-3 ovarian and in the experiment with SK-MEL-28 melanoma was > 100 µM in each case. In addition, the TGI in the experiment on OVCAR-4 ovarian, in the experiment on LXFL 529 NSCLC and in the experiment with OVCAR-8 ovarian was > 100 µM throughout.

Take `CC12CCC3(OCCO3)C(OC(=O)c3ccccc3)=C1CCC21OCCO1` (stereo not drawn): the TGI in the experiment on HL-60(TB) leukemia, in the experiment with DLD-1 colon, in the experiment with UACC-257 melanoma, with MALME-3M melanoma, in the experiment with SK-OV-3 ovarian and in the experiment with SK-MEL-28 melanoma was > 100 µM in each case. The TGI in the experiment on OVCAR-4 ovarian, in the experiment with LXFL 529 NSCLC and in the experiment on OVCAR-8 ovarian was > 100 µM each time.
